The values that follow come from US8614246B2, “Indole derivatives for treating neurodegenerative diseases” (Centre National de la Recherche Scientifique (CNRS), priority 2009, dated 2013).

Assay [1] has as its system dopaminergic neurons (TH+ neurons) in primary cultures of ventral mesencephalon. Put plainly: Neuroprotection: counting of remaining TH+ neurons in primary cultures of ventral mesencephalon (spontaneous death of dopaminergic neurons). Conditions: Product 10 nM, 8 days culture, rat embryo ventral mesencephalon; untreated control = 100. It counts as cell-based. How it is done:
(§1) Dissection. Dissection consists of extracting embryos from the uterus of a rat after fifteen days of gestation. The brain of each embryo is then dissected under magnifying binoculars in order to extract the ventral mesencephalus.
(§2) Seeding. Mesencephalons are grouped in a flask containing 2 mL of L15 medium and then mechanically dissociated (30 repeat operations), 5 mL of L15 medium are added. The suspension is allowed to stand for 8 minutes. The 5 mL float is then recovered in a new flask and the cells are dissociated again (30 repeat operations). 5 mL of L15 is added again and the suspension is left to stand for 8 minutes. The 5 mL float is added to the previous float. The cells thus extracted are then centrifuged for 5 minutes at 1000 rpm^−1. The cell sediment is dissolved in a Neurobasal medium supplemented with 1% of B27, 1% of glutamine and 1% of a mixture of penicillin and streptomycin. The cells are then seeded at an appropriate dilution (0.6 embryos per well in 24-well plates and 0.4 per well in 48-well plates). The cultures are incubated at 37° C. in a wet atmosphere enriched with 5% CO2 in 24-well or 48-well plates.
(§3) Treatment. After 24 hours, two-thirds of the medium in each well is replaced by a new medium enriched with the product to be tested at the appropriate dilution. The medium is replaced in the same way after 4 days of culture.
(§4) Immunohistochemistry. After 8 days culture, the cells are fixed by a solution of 4% formaldehyde and then washed three times with PBS. The cells are then submitted to anti-tyrosine hydroxylase (TH) immunohistochemistry, developed by a secondary antibody coupled to a fluorophore emitting in the red (Cy3).
(§5) Analyses. Neuroprotection is evaluated by counting positive TH neurons with 10 fields per well directly under an inverted fluorescence microscope, reported as a percentage of the untreated control. Experiments are done on three wells per condition. Three independent experiments are done under these conditions. The total neuritic length per cell is calculated using Explora Nova's Neurite Outgrowth software on 60 to 100 neurons photographed independently per condition.
(§6) Primary cultures of ventral mesencephalon of rat embryos after 15.5 days of gestation under conditions causing spontaneous death of dopaminergic neurons, are maintained in the presence or absence of the compounds to be tested for 8 days. After fixing, the cultures are submitted to immunocytochemistry directed against tyrosine hydroxylase, a specific marker of dopaminergic neurons.
The neuroprotective potential of each compound is then estimated by counting the number of remaining neurons (TH^+ neurons) under a fluorescence microscope. The results for the different treatments are expressed as a percentage of the number of neurons remaining relative to untreated cultures (Control).
(§7) All experiments were done by comparison with a positive control, dibutyryl-AMP cyclic (db-AMPc) (Mourlevat S. et al. Mol. Pharmacol. 2003, 64 (3), 578-586).

For assay [2] the test system is unchanged. The assay can be described thus: Neuritogenesis: total neuritic length per dopaminergic neuron in primary cultures of ventral mesencephalon. Conditions: Product 10 nM, 8 days culture, rat embryo ventral mesencephalon; untreated control = 100. Format: cell-based. The method, then: as §1, §2, §3, §4, §5, §6
Neuritogenesis is quantified by measuring the total neuritic length per dopaminergic neuron (neuritic length/TH^+ neuron) using an image analyser on a minimum of sixty photographed neurons per condition (10-30% of all dopaminergic neurons).
as §7

Assay [3] in a line: Test with ABTS (anti-oxidant capacity, hydroxyl radicals generated by Fenton's reaction). It counts as biochemical. The conditions noted are these: 30 minutes at ambient temperature, range 10 nM to 1 mM, read-out: IC50 ± SEM (concentration at which 50% of hydroxyl radicals have been reduced) (converted). From the text: ABTS or 2,2′-azino-bis-(3-ethylbenzthiazoline-6-sulfonic) acid is a coloured indicator of the presence of hydroxyl radicals in solution. The attack of a hydroxyl radical on ABTS generates the formation of an ATBS^+. cation radical (Equation 1). This coloured entity makes the absorbance (Abs) of the solution equal to 450 nm. ABTS+HO. ? ABTS^+. +HO^− Equation 1
During the test, hydroxyl radicals are generated by Fenton's reaction in the presence of iron and hydrogen peroxide (Equation 2) H2O2+Fe^2+ ? HO. +HO^−+Fe^3+ Equation 2
When a radical trap or antioxidant is present in solution, competition with ABTS is set up for reduction of hydroxyl radicals, which reduces the absorbance (Abs) at 450 nm.
The percentage of hydroxyl radicals converted into hydroxyl ions (% conversion) by the compound of interest may be calculated using Formula 1: […]
The anti-oxidant capacity of a compound may then be expressed in the form of IC50 that reflects the concentration at which 50% of hydroxyl radicals have been reduced by the tested compound.
Thus, the compounds to be tested and Trolox® were solubilised in ethanol so as to obtain solutions at 1 mM. We used cascade dilutions to obtain a concentration range varying from 1 mM to 10 nM. 90 μL of a 1:1 water-ethanol mixture was then added onto an ELISA 96-well plate, followed by 15 μL of an aqueous solution of ABTS at 1 mM, 15 μL of an aqueous solution of Fe2SO4 at 0.5 mM, 15 μL of each compound to be tested at different concentrations, and then 15 μl of an aqueous solution of hydrogen peroxide at 100 mM. The mixtures thus obtained were stirred at ambient temperature sheltered from air for 30 minutes, and the value of the absorbance at […] was then measured. The capacity of each compound to reduce hydroxyl radicals is determined by the reduction in absorbance at 450 nm, the control solution being composed of pure ethanol. Therefore, the ABTS test was made in comparison with Trolox®. The same ranges from 10 nm to 1 mM of indoles 1a, 1c, 1g, 1i, 2a, 4c, 2g, 2h and 2i were tested.

The subject of assay [4] is reactive oxygen species (ROS) in neurones of ventral mesencephalon cultures. The assay can be described thus: Cellular test with dihydrorhodamine 123 (DHR-123). Conditions: compounds 10 nM for eight days, 50 μM DHR-123 30 minutes; control = 100; Trolox at 10 μM per FIG. 1. It counts as cell-based, rat. The method, then: Dihydrorhodamine 123 or DHR123 is used as an indicator of reactive oxygen species (ROS). It is uncharged and not fluorescent and passes passively through the cellular membrane before being oxidised in contact with free radicals, into rhodamine 123 emitting green fluorescence.
The quantity of intracellular ROS is reduced when the cells are treated by an anti-oxidant. This reduction results in a quantifiable decay in emitted fluorescence in the presence of DHR123.
In order to conclude the role of the anti-oxidant capacity of compounds according to the invention in the observed neuroprotectrive activity, the cultures were placed strictly under the same conditions as for the neuroprotection/neuritogenesis test. Thus, the cultures were kept for eight days in the presence of a concentration of 10 nM of each of the tested tryptaminic derivatives. On the 8th day in vitro (DIV 8), 50 μM of DHR-123 (Sigma) was added and the cells were incubated for 30 minutes at 37° C. They were then washed three times, treated once again by compounds according to the invention and placed in a medium without any phenol red. Living fluorescent neurones that were immediately photographed can be observed, the fluorescence density per neurone being quantified under an inverted fluorescence microscope by an image analysis software.

The structures appear in SMILES notation.

In the case of `CCCCCCCCCCCCCCCCNCCc1c[nH]c2ccccc12` [Compound 2c, N-(2-(1H-indol-3-yl)ethyl)hexadecan-1-amine], the “TH+ neurons, % relative to control ± SEM” value in assay [1] was 131.9 ± 4.7 %. Also, the “Neuritic length/TH+ neuron, % relative to control ± SEM” value in assay [2] amounted to 197.0 ± 14.0 %. Further, the IC50 in assay [3] was 620 µM. Further, the “IF/neurone (%) (fluorescence intensity per neurone)” value in assay [4] is on record as 47.8 ± 4.7 %.
